Assay results taken from ChEMBL document CHEMBL4507262, “Data for DCP probe A-1596586” (2021).

Tests used:
[1] = molecular target: T1, 5-hydroxytryptamine receptor 2C (Homo sapiens) (UniProt P28335); details: Compound concentration 10.0 uM
T1 sequence (whole entry): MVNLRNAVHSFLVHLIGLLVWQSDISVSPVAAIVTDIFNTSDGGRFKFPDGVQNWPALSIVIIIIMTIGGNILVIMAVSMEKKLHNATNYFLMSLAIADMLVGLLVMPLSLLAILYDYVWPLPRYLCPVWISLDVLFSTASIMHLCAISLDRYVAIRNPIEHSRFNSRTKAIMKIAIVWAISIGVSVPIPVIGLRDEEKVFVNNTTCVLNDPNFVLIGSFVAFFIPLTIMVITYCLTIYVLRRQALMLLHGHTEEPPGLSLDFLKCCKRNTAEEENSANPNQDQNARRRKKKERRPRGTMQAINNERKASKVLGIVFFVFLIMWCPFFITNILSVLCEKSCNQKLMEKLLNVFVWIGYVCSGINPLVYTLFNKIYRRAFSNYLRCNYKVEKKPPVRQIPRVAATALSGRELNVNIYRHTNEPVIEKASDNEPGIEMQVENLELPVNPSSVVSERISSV

[2] = molecular target: Phosphatidylinositol 4-phosphate 5-kinase type-1 alpha (Homo sapiens) (UniProt Q99755); details: Compound concentration 1000.0 nM
[3] = molecular target: Melatonin receptor type 1B (Homo sapiens) (UniProt P49286); assay: MT2 (ML1B) (h) Eurofins-Cerep binding assay; set-up: ligand concentration 0.05 nM; details: filed as agonist, Compound concentration 10.0 uM
[4] = molecular target: NUAK family SNF1-like kinase 2 (Homo sapiens) (UniProt Q9H093); details: Compound concentration 1000.0 nM
[5] = molecular target: Dual specificity protein kinase CLK2 (Homo sapiens) (UniProt P49760); details: Compound concentration 1000.0 nM
[6] = molecular target: Tyrosine-protein kinase SYK (Homo sapiens) (UniProt P43405); details: Compound concentration 1000.0 nM
[7] = molecular target: Serine/threonine-protein kinase PAK 4 (Homo sapiens) (UniProt O96013); details: Compound concentration 1000.0 nM
[8] = molecular target: Phosphatidylinositol 5-phosphate 4-kinase type-2 beta (Homo sapiens) (UniProt P78356); details: Compound concentration 1000.0 nM
[9] = molecular target: B2 bradykinin receptor (Homo sapiens) (UniProt P30411); assay: B2 (h) Eurofins-Cerep binding assay; set-up: ligand concentration 0.3 nM; details: filed as agonist, Compound concentration 10.0 uM
[10] = molecular target: Mitogen-activated protein kinase kinase kinase 4 (Homo sapiens) (UniProt Q9Y6R4); details: Compound concentration 1000.0 nM
[11] = molecular target: Serine/threonine-protein kinase D2 (Homo sapiens) (UniProt Q9BZL6); details: Compound concentration 1000.0 nM
[12] = molecular target: G protein-coupled receptor kinase 4 (Homo sapiens) (UniProt P32298); details: Compound concentration 1000.0 nM
[13] = molecular target: 5-hydroxytryptamine receptor 6 (Homo sapiens) (UniProt P50406); details: Compound concentration 10.0 uM
[14] = molecular target: Phosphorylase b kinase regulatory subunit alpha, liver isoform (Homo sapiens) (UniProt P46019); details: Compound concentration 1000.0 nM
[15] = molecular target: 5-hydroxytryptamine receptor 5A (Homo sapiens) (UniProt P47898); details: Compound concentration 10.0 uM
[16] = molecular target: T2, Muscarinic acetylcholine receptor M2 (Homo sapiens) (UniProt P08172); details: Compound concentration 10.0 uM
T2 sequence (whole entry): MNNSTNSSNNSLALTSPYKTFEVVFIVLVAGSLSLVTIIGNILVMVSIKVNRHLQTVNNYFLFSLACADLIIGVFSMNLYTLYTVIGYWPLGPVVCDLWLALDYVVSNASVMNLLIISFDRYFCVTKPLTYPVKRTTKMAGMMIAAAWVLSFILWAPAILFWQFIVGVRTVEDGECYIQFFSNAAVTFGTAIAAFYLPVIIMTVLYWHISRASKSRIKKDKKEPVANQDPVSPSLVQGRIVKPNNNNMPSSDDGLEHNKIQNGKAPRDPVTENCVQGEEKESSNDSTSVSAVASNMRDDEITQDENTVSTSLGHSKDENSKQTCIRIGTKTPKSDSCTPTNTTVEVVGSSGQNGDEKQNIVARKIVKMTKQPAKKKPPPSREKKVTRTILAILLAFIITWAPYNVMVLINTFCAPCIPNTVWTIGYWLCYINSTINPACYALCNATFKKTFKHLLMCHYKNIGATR

[17] = molecular target: Atypical kinase COQ8B, mitochondrial (Homo sapiens) (UniProt Q96D53); details: Compound concentration 1000.0 nM
[18] = molecular target: 5-hydroxytryptamine receptor 1B (Homo sapiens) (UniProt P28222); details: Compound concentration 10.0 uM
[19] = molecular target: Macrophage-stimulating protein receptor (Homo sapiens) (UniProt Q04912); details: Compound concentration 1000.0 nM
[20] = molecular target: Sodium-dependent dopamine transporter (Homo sapiens) (UniProt Q01959); details: Compound concentration 10.0 uM
[21] = molecular target: Sodium-dependent serotonin transporter (Homo sapiens) (UniProt P31645); details: Compound concentration 10.0 uM
[22] = molecular target: 5-hydroxytryptamine receptor 1E (Homo sapiens) (UniProt P28566); details: Compound concentration 10.0 uM
[23] = molecular target: Histamine H3 receptor (Homo sapiens) (UniProt Q9Y5N1); details: Compound concentration 10.0 uM

Sequence of Phosphatidylinositol 5-phosphate 4-kinase type-2 beta (Homo sapiens) (P78356 whole entry): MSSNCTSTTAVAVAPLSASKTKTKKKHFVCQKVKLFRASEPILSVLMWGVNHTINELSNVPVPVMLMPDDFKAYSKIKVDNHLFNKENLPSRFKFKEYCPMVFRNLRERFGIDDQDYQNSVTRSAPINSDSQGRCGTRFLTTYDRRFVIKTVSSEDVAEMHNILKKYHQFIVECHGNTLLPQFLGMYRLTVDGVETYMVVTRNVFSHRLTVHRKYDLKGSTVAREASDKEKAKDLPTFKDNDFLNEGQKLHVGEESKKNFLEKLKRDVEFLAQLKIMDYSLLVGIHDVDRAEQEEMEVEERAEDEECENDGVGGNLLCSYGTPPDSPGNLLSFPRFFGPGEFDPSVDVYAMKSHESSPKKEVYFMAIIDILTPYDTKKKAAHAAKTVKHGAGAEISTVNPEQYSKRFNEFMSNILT
Sequence of Phosphorylase b kinase regulatory subunit alpha, liver isoform (Homo sapiens) (P46019 whole entry, canonical isoform): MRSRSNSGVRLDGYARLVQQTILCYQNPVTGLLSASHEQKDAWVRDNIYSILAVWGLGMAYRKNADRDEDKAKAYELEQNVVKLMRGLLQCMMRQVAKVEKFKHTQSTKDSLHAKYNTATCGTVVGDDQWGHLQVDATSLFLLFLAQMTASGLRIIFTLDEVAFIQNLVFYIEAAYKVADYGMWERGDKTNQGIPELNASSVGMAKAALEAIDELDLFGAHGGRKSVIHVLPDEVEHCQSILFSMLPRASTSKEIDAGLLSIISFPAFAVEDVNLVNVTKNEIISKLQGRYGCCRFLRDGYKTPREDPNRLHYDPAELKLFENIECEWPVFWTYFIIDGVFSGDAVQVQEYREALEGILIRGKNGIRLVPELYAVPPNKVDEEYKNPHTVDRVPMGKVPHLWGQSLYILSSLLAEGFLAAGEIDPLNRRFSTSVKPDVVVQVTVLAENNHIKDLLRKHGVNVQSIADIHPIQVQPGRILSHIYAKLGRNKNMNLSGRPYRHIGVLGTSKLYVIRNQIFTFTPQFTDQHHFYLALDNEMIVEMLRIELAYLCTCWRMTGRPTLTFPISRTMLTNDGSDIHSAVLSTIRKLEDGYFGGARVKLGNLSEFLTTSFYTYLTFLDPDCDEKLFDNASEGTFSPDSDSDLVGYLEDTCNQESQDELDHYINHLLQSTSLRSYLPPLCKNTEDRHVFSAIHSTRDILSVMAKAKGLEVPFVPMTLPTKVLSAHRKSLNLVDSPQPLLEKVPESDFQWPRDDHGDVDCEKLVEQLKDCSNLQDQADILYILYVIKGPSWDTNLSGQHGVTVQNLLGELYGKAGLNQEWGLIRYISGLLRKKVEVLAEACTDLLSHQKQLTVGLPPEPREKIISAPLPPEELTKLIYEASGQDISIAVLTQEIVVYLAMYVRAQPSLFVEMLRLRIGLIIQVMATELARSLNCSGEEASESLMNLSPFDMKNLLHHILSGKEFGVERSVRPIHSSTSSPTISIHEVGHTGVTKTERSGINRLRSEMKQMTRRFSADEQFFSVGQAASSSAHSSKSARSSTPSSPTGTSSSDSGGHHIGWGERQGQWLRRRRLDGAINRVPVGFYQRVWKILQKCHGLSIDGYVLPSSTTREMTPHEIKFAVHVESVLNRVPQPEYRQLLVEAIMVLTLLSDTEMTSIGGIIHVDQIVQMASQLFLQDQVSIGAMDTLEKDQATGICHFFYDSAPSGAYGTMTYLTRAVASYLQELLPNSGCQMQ
Sequence of NUAK family SNF1-like kinase 2 (Homo sapiens) (Q9H093 whole entry): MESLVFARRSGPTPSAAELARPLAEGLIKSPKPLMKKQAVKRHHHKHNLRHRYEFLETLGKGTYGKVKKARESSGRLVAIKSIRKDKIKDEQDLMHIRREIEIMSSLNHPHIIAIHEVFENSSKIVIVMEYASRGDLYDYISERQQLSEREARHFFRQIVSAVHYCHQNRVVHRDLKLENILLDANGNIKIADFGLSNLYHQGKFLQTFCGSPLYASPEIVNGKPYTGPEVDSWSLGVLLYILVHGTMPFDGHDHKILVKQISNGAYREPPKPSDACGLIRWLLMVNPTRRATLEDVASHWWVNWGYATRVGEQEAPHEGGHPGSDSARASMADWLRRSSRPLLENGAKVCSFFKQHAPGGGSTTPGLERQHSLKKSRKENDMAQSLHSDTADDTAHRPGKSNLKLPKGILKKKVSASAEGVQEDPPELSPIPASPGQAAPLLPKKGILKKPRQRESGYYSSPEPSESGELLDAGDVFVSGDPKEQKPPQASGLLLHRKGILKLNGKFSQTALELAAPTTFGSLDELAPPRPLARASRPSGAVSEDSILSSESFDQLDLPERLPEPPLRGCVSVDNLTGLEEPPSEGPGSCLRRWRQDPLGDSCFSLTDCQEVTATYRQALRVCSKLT
Sequence of B2 bradykinin receptor (Homo sapiens) (P30411 whole entry): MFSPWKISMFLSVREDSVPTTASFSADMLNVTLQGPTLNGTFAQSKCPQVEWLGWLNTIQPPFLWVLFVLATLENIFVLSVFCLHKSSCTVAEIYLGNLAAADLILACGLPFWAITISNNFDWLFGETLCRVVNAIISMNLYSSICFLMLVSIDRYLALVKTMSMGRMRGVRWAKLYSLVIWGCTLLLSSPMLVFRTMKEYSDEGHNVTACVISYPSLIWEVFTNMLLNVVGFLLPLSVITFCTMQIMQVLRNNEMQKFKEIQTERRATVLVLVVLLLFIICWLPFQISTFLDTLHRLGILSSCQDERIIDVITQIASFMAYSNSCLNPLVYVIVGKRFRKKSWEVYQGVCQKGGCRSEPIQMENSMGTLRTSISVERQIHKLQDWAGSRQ
Sequence of 5-hydroxytryptamine receptor 1B (Homo sapiens) (P28222 whole entry): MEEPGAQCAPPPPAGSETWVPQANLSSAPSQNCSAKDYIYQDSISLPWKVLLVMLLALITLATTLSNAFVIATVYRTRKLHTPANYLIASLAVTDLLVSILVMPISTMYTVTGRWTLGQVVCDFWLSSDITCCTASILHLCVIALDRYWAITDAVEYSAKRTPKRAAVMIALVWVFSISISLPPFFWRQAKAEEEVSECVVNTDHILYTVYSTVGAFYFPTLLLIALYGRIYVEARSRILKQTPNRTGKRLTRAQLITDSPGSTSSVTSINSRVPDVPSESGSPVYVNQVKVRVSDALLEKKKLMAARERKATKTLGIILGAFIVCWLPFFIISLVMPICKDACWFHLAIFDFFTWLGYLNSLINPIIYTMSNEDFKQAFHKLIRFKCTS
Sequence of Phosphatidylinositol 4-phosphate 5-kinase type-1 alpha (Homo sapiens) (Q99755 whole entry): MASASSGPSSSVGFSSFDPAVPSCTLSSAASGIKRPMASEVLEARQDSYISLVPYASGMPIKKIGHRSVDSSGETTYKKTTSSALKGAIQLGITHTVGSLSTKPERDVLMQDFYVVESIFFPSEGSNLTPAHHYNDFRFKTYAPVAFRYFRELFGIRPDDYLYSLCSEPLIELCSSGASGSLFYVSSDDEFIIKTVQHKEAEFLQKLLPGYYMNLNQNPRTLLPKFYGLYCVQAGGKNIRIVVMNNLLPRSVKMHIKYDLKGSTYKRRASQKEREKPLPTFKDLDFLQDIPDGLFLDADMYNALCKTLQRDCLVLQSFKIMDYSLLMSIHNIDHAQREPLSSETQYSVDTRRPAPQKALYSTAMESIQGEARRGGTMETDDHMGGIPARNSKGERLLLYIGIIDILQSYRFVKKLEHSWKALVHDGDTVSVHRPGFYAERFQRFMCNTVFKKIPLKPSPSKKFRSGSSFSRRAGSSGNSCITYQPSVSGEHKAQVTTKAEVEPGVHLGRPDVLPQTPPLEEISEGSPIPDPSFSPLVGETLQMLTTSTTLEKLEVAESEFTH
Sequence of Serine/threonine-protein kinase PAK 4 (Homo sapiens) (O96013 whole entry, looked up): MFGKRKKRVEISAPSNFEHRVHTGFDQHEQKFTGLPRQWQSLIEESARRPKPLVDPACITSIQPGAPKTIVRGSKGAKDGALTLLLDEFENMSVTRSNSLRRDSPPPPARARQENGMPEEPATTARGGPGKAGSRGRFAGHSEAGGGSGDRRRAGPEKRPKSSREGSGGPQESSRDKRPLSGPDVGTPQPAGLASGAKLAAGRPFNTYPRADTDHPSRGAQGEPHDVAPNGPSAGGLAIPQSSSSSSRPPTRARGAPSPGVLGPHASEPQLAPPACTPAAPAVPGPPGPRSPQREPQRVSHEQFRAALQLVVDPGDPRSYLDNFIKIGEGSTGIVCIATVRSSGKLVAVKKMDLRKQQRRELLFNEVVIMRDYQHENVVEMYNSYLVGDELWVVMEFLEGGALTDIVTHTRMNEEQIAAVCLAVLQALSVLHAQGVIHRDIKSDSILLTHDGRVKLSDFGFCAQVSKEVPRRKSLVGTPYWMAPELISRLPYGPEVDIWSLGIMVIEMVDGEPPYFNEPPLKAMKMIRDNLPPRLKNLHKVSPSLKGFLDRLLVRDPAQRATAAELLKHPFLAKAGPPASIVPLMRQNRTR
Sequence of Dual specificity protein kinase CLK2 (Homo sapiens) (P49760 whole entry, looked up): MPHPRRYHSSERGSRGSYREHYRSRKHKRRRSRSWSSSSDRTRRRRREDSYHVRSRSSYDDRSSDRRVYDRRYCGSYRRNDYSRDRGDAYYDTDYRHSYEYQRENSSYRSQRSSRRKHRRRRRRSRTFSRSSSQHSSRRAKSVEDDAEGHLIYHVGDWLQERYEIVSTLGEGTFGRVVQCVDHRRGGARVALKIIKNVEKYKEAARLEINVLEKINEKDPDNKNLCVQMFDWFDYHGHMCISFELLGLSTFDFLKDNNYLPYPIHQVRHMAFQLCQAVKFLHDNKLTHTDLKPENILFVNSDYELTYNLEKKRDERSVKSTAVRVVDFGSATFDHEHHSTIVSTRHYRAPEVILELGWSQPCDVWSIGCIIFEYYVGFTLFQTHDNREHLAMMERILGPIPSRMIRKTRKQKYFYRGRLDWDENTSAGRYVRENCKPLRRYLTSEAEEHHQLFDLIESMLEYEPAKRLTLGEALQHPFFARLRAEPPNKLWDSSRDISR

SMILES	residual activity [2] [%]	% Inhibition of Control Specific Binding (Mean n=2) [3] [%]	residual activity [4] [%]	residual activity [5] [%]	residual activity [6] [%]	residual activity [7] [%]	residual activity [8] [%]	% Inhibition of Control Specific Binding (Mean n=2) [9] [%]	residual activity [10] [%]	residual activity [11] [%]	residual activity [12] [%]	residual activity [14] [%]	residual activity [17] [%]	inhibition [18] [%]	residual activity [19] [%]	also measured
COc1ccc2c(c1)O[C@@H](c1ccc(OC)c(OC)c1)C[C@H]2NC(=O)C1(c2ccc3c(c2)OC(F)(F)O3)CC1 [A-1596586]	72	41	76	96	100	89	100	-13.5	95	100	92	82	100	-0.84	94	inhibition [1]: -2.28%; inhibition [13]: -7.58%; inhibition [15]: -7.95%; inhibition [16]: -9.38%; inhibition [20]: 6.33%
COc1ccc2c(c1)O[C@H](c1ccc(OC)c(OC)c1)C[C@@H]2NC(=O)C1(c2ccc3c(c2)OC(F)(F)O3)CC1 [A-1596584]	84	38	100	95	100	100	80	-8.3	98	100	100	93	63	-1	100	inhibition [21]: 5.75%; inhibition [22]: 1.27%; inhibition [23]: 10.4%
